These results are taken from US5002753A, “Specific ligands for estrogen and progestagen steroid hormone receptors, application and intermediate synthesis products” (IRE-Celltarg S.A., priority 1988, dated 1991).

Read-outs that look alike come from different tables or passages of the source.

Data set [1] has as its system MXT syngenetic mammary tumors. Put plainly: Targeted radiotherapy of female BDF1 mice grafted with MXT syngenetic mammary tumors. Type of data set: in vivo. How it is done:
(§1) Twenty nine female BDF1 mice were grafted with MXT syngenetic mammary tumors implanted subcutaneously. Fourteen mice received three intravenous injections of 100 μCi of 11beta-chloromethyl-17-iodovinyl- ^123 I of E isomerism at fortnightly intervals.
(§2) The 100 μCi of labeled hormone were injected diluted in 200 μl of solution containing 9 g/l NaCl, 5% ethanol and 1% of Tween 80. The fifteen control mice received 200 μl of the NaCl/ethanol/Tween solution on the same dates.

Data set [2] in a line: Acute toxicity in mice grafted with MXT mammary tumors. Type of data set: in vivo, female BDF1 mice. The settings on record: three i.v. injections of 100 μCi at fortnightly intervals, period of 60 days. The protocol: as §1, §2
Another data set has as its target T1, estrogen receptors (Homo sapiens, UniProt P03372).
T1 construct: cytosols of MCF7 mammary human tumor rich in estrogen receptors; endogenous in cells; host or cells: MCF7 human mammary tumor, cytosol
T1 sequence (P03372 1-595): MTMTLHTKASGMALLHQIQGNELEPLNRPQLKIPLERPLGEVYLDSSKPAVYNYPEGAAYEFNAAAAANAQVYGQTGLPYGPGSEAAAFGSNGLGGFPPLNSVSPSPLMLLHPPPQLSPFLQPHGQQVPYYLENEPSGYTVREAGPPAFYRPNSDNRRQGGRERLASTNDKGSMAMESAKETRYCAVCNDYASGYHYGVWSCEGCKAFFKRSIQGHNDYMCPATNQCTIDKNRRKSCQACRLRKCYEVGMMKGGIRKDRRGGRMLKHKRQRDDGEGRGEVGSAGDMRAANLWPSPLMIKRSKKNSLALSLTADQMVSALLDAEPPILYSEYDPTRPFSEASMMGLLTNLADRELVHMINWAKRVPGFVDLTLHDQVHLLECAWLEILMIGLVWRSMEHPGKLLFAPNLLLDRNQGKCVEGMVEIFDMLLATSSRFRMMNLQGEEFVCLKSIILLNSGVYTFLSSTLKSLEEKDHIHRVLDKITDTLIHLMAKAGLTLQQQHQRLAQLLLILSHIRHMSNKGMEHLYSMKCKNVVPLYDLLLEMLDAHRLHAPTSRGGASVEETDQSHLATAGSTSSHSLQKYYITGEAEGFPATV
As to the kind of experiment: Inhibition of the fixation of tritiated estradiol on cytosols of MCF7 mammary human tumor. Type of data set: binding. Conditions: 25° C, MCF7 cytosol.

Data set [3] in a line: Hydrophobicity index based on retention time in reverse phase HPLC. The format is physicochemical. On the set-up: retention time (hydrophobicity index): dose or concentration left out as unconfirmed. Conditions: for retention time (hydrophobicity index): HPLC reverse phase, microBondapack C18, 1 ml/min of ethanol in H2O.
Data set [4] is described as follows: Stability of the radioiodinated product in column eluate (60% ethanol) at -20° C. Type of data set: physicochemical. How it is done:
The method is the same as for the labelling of (14').
The starting material is the derivative (15').
The HPLC separation conditions are different: the mobile phase is 60% ethanol in water, the flow rate is 1 ml/min, the final product is collected at 12 minutes. The labeled product is kept as such in the column eluate (60% ethanol). In these conditions, it is stable for at least 12 days at -20° C. (deiodination less than 2%).

Data set [5] in a line: Biodistribution of 125I-labeled Z isomer (16') in ovarectomized BDF1 mice. The format is in vivo. Conditions: for tissue uptake at 2 h / tissue uptake at 24 h: mouse, 1 uCi, 1 μCi 125I, ± S.D. How it is done:
The biodistribution of the Z isomer (16') in ovarectomized BDF mice is highly favorable.
8 ovarectomized BDF1 mice were injected with 1 μCi of 11beta-chloromethyl-17alpha-(2-iodovinyl)estradiol-(^125 I). 4 mice were sacrificed 2 hours after the estradiolinjection and 4 24 hours after the injection.

The target in a further data set is T2, estrogen receptor (Bos taurus, UniProt P49884).
T2 sequence (P49884 1-596): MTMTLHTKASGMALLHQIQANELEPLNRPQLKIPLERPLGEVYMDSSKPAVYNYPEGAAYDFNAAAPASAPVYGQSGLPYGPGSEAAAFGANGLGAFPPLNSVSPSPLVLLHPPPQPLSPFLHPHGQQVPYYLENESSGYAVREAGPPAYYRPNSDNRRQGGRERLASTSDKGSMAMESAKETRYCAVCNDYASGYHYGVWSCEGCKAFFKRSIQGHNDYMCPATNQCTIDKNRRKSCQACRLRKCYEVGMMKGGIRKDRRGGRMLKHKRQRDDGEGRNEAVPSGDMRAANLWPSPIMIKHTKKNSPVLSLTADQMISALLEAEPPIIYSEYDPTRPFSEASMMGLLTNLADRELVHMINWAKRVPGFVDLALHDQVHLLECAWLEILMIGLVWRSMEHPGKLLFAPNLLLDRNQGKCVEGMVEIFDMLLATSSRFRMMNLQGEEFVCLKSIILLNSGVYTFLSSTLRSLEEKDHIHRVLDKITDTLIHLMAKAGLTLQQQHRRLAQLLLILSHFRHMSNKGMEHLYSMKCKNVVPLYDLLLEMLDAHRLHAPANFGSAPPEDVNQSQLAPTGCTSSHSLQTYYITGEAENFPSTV
As to the kind of experiment: Tests of binding of calf uterus cytosol to the estrogen receptor. From the text:
The nonspecific binding to the transport proteins is diminished by virtue of the presence of the 11-beta and 17-alpha groups.

For data set [6] the following is noted: rat, in vivo, 1440 min; cited from earlier work.
Where [7] appears, read: blood, read-out: % injected dose/g of tissue, blood.
The mark [8] stands for this setting: fat, read-out: % injected dose/g of tissue, fat.
Setting [9] is: kidneys, read-out: % injected dose/g of tissue, kidneys.
The mark [10] stands for this setting: liver, read-out: % injected dose/g of tissue, liver.
The mark [11] stands for this setting: muscle, read-out: % injected dose/g of tissue, muscle.
Setting [12] is: spleen, read-out: % injected dose/g of tissue, spleen.
Where [13] appears, read: uterus, read-out: % injected dose/g of tissue, uterus.

On to `C[C@]12C[C@H](CCl)[C@@H]3c4ccc(O)cc4CC[C@H]3[C@@H]1CC[C@@]2(O)/C=C/[123I]` [11beta-chloromethyl-17-iodovinyl- ^123 I of E isomerism, 11Beta-Chloromethyl-17-Iodovinylestradiol-^123 I], for which the “tumor growth compared with the control group, % of the average tumor growth” value in data set [1] (day 18, three i.v. injections of 100 μCi at fortnightly intervals) was “lower than 45%”. The “tumor growth compared with the control group (in words)” value in data set [1] (three i.v. injections of 100 μCi at fortnightly intervals) is reported as “significant slowing down of the tumor growth”. In data set [1] (versus control group), the survival result is “better survival”. In data set [2], the acute toxicity result is reported as “No acute toxicity was detected”.

Consider `C[C@]12C[C@H](CCl)[C@@H]3c4ccc(O)cc4CC[C@H]3[C@@H]1CC[C@@]2(O)C=CI` [11beta-chloromethyl-17-iodovinylestradiol], for which, on estrogen receptors, the “affinity (in words)” value was “an affinity comparable with that of 11beta-chloromethylestradiol and clearly superior to that of estradiol”. Besides, the relative binding affinity entry at estrogen receptors (versus estradiol) is listed as “greater than 1,000”.

For the molecule `C[C@]12C[C@H](CCl)[C@@H]3c4ccc(O)cc4CC[C@H]3[C@@H]1CC[C@@]2(O)/C=C/I` [14', (E)-11-chloromethyl-3,17β-dihydroxy-17α-(2iodovinyl)-1,3,5(10)-estratriene], the “retention time (hydrophobicity index)” value in data set [3] was determined as 14.3 min.

As to `C[C@]12C[C@H](CCl)[C@@H]3c4ccc(O)cc4CC[C@H]3[C@@H]1CC[C@@]2(O)/C=C\I` [16', (Z)-11beta-chloromethyl-3,17beta-dihydroxy17alpha-(2-iodovinyl)-1,3,5(10)-estratriene], in data set [4] (60% ethanol), the degraded at 288 h was less than 2%. For the same molecule, in data set [4] (column eluate (60% ethanol), -20° C), the “stable for at least (storage stability of labeled product)” value is recorded as “at least 12 days”. Further, in data set [3], the “retention time (hydrophobicity index)” value was found to be 12.1 min. The “hydrophobicity, Z isomer versus E isomer (in words)” value in data set [3] (comparison of Z with E isomer) is “less hydrophobic than the E isomer”. Besides, the uterus/blood concentration ratio in data set [5] (2 h) was found to be 6.16; in data set [5] (24 h), 65.80. The uterus/fat concentration ratio in data set [5] (2 h) was found to be 2.90; in data set [5] (24 h) it was 35.42. The uterus/liver concentration ratio came to 1.30 in data set [5] (2 h) and 10.12 in data set [5] (24 h). Also, the uterus/muscle concentration ratio in data set [5] (2 h) is given as 7.48; in data set [5] (24 h), 92.10. For the same molecule, the tissue uptake at 2 h worked out at 1.08 ± 0.24 %ID/g in data set [5] (setting [7]); 2.29 ± 0.25 %ID/g in data set [5] (setting [8]); 1.84 ± 0.27 %ID/g in data set [5] (setting [9]); 5.1 ± 0.72 %ID/g in data set [5] (setting [10]); 0.89 ± 0.07 %ID/g in data set [5] (setting [11]); 0.97 ± 0.18 %ID/g in data set [5] (setting [12]). Further, the tissue uptake at 2 h in data set [5] (setting [13]) was determined as 6.66 ± 0.91 %ID/g. Also, the tissue uptake at 24 h stood at 0.14 ± 0.02 %ID/g in data set [5] (setting [7]); 0.26 ± 0.09 %ID/g in data set [5] (setting [8]); 0.2 ± 0.02 %ID/g in data set [5] (setting [9]); 0.91 ± 0.05 %ID/g in data set [5] (setting [10]); 0.1 %ID/g in data set [5] (setting [11]); 0.12 ± 0.01 %ID/g in data set [5] (setting [12]). In addition, the tissue uptake at 24 h in data set [5] (setting [13]) is 9.21 ± 1.44 %ID/g. In addition, the “binding to the estrogen receptor (in words)” value at estrogen receptor (25° C, 1 h, final 5 mM, versus tritiated estradiol) is “binding of the same order as the tritiated estradiol”. This molecule also gave a nonspecific binding at estrogen receptor (25° C, 1 h, saturating dose (final 5 mM), calf uterus cytosol) of 23%. Further, the “nonspecific binding to the transport proteins (in words)” value at estrogen receptor (versus tritiated estradiol) was “diminished”. Besides, the “sensitivity level (in words)” value at estrogen receptor (versus tritiated estradiol, by virtue of the higher specific activity) was “higher sensitivity level”.

Take `CCC1C[C@@]2(C)[C@@H](CCC2(O)C=C[125I])[C@@H]2CCc3cc(O)ccc3[C@@H]12` (stereo partly shown) [I-125 17-iodovinyl-11-ethylestradiol, 17-iodovinyl-11-ethylestradiol]: in data set [6], the uterus/blood ratio is recorded as 40.4, the uterus/liver ratio is listed as 3.89 and the uterus/lung ratio is 52.8.
